ChEMBL document CHEMBL3774390, “Azide-enolate 1,3-dipolar cycloaddition in the synthesis of novel triazole-based miconazole analogues as promising antifungal agents” (2016)
Values after ≈ are worked out from the molar mass of the structure shown.

Experiments:
Format in all cases: functional
Cyberlindnera jadinii = test: Antifungal activity against Candida utilis ATCC 9226 by M27-A3 protocol-based broth microdilution method; conditions: Williopsis jadinii
Candida albicans = test: Antifungal activity against Candida albicans ATCC 10231 by M27-A3 protocol-based broth microdilution method
Candida tropicalis = test: Antifungal activity against Candida tropicalis ATCC 13803 by M27-A3 protocol-based broth microdilution method
Aspergillus fumigatus = test: Antifungal activity against Aspergillus fumigatus ATCC 16907 by M38-A protocol-based broth microdilution method
[1] = Antifungal activity against Trichosporon cutaneum ATCC 28592 by M38-A protocol-based microdilution method; conditions: Cutaneotrichosporon cutaneum
Rhizopus arrhizus = test: Antifungal activity against Rhizopus oryzae ATCC 10329 by M38-A protocol-based microdilution method
Mucor hiemalis = test: Antifungal activity against Mucor hiemalis ATCC 8690 by M38-A protocol-based microdilution method

## CCCCCc1c(S(=O)(=O)c2ccccc2)nnn1C(Cn1ccnc1)c1ccc(Cl)cc1Cl (stereo unspecified)
Cyberlindnera jadinii
  MIC: 0.25 µg/mL (≈ 0.482 µM)
Candida albicans
  MIC: 0.06 µg/mL (≈ 0.116 µM)
Candida tropicalis
  MIC: 0.06 µg/mL (≈ 0.116 µM)
Aspergillus fumigatus
  MIC: 2 µg/mL (≈ 3.86 µM)
[1]
  MIC: 0.12 µg/mL (≈ 0.231 µM)
Rhizopus arrhizus
  MIC: 0.5 µg/mL (≈ 0.964 µM)
Mucor hiemalis
  MIC: 0.25 µg/mL (≈ 0.482 µM)

## Clc1ccc(C(Cn2ccnc2)n2nncc2C2CCCCC2)c(Cl)c1 (stereo unspecified)
Cyberlindnera jadinii
  MIC: 16 µg/mL (≈ 41 µM)
Candida albicans
  MIC: 16 µg/mL (≈ 41 µM)
Candida tropicalis
  MIC: 8 µg/mL (≈ 20.5 µM)
Aspergillus fumigatus
  MIC: 16 µg/mL (≈ 41 µM)
[1]
  MIC: 16 µg/mL (≈ 41 µM)
Rhizopus arrhizus
  MIC: 2 µg/mL (≈ 5.12 µM)
Mucor hiemalis
  MIC: 0.12 µg/mL (≈ 0.307 µM)

## CCC(C)n1ncn(-c2ccc(N3CCN(c4ccc(OCC5COC(Cn6cncn6)(c6ccc(Cl)cc6Cl)O5)cc4)CC3)cc2)c1=O (stereo unspecified) [ITRACONAZOLE]
Cyberlindnera jadinii
  MIC: 0.06 µg/mL (≈ 0.085 µM)
Candida albicans
  MIC: 0.03 µg/mL (≈ 0.0425 µM)
Candida tropicalis
  MIC: 0.03 µg/mL (≈ 0.0425 µM)
Aspergillus fumigatus
  MIC: 0.25 µg/mL (≈ 0.354 µM)
[1]
  MIC: 1 µg/mL (≈ 1.42 µM)
Rhizopus arrhizus
  MIC: 0.5 µg/mL (≈ 0.709 µM)
Mucor hiemalis
  MIC: 1 µg/mL (≈ 1.42 µM)

## CCCCC(C)(C)c1cnnn1C(Cn1ccnc1)c1ccc(Cl)cc1Cl (stereo unspecified)
Cyberlindnera jadinii
  MIC: 2 µg/mL (≈ 4.92 µM)
Candida albicans
  MIC: 0.03 µg/mL (≈ 0.0738 µM)
Candida tropicalis
  MIC: 0.03 µg/mL (≈ 0.0738 µM)
Aspergillus fumigatus
  MIC: 0.5 µg/mL (≈ 1.23 µM)
[1]
  MIC: 8 µg/mL (≈ 19.7 µM)
Rhizopus arrhizus
  MIC: 8 µg/mL (≈ 19.7 µM)
Mucor hiemalis
  MIC: 16 µg/mL (≈ 39.4 µM)

## O=C(c1ccccc1)c1nnn(C(Cn2ccnc2)c2ccc(Cl)cc2Cl)c1-c1ccccc1 (stereo unspecified)
Cyberlindnera jadinii
  MIC: 16 µg/mL (≈ 32.8 µM)
Candida albicans
  MIC: 0.03 µg/mL (≈ 0.0614 µM)
Candida tropicalis
  MIC: 0.06 µg/mL (≈ 0.123 µM)
Aspergillus fumigatus
  MIC: 16 µg/mL (≈ 32.8 µM)
[1]
  MIC: 16 µg/mL (≈ 32.8 µM)
Rhizopus arrhizus
  MIC: 8 µg/mL (≈ 16.4 µM)
Mucor hiemalis
  MIC: 16 µg/mL (≈ 32.8 µM)

## CC(=O)c1nnn(C(Cn2ccnc2)c2ccc(Cl)cc2Cl)c1C (stereo unspecified)
Cyberlindnera jadinii
  MIC: 16 µg/mL (≈ 43.9 µM)
Candida albicans
  MIC: 16 µg/mL (≈ 43.9 µM)
Candida tropicalis
  MIC: 16 µg/mL (≈ 43.9 µM)
Aspergillus fumigatus
  MIC: 16 µg/mL (≈ 43.9 µM)
[1]
  MIC: 16 µg/mL (≈ 43.9 µM)
Rhizopus arrhizus
  MIC: 8 µg/mL (≈ 22 µM)
Mucor hiemalis
  MIC: 16 µg/mL (≈ 43.9 µM)

## N#Cc1nnn(C(Cn2ccnc2)c2ccc(Cl)cc2Cl)c1-c1ccccc1 (stereo unspecified)
Cyberlindnera jadinii
  MIC: 16 µg/mL (≈ 39.1 µM)
Candida albicans
  MIC: 16 µg/mL (≈ 39.1 µM)
Candida tropicalis
  MIC: 16 µg/mL (≈ 39.1 µM)
Aspergillus fumigatus
  MIC: 16 µg/mL (≈ 39.1 µM)
[1]
  MIC: 16 µg/mL (≈ 39.1 µM)
Rhizopus arrhizus
  MIC: 16 µg/mL (≈ 39.1 µM)
Mucor hiemalis
  MIC: 16 µg/mL (≈ 39.1 µM)

## CSc1ccc(-c2cnnn2C(Cn2ccnc2)c2ccc(Cl)cc2Cl)cc1 (stereo unspecified)
Cyberlindnera jadinii
  MIC: 16 µg/mL (≈ 37.2 µM)
Candida albicans
  MIC: 4 µg/mL (≈ 9.29 µM)
Candida tropicalis
  MIC: 1 µg/mL (≈ 2.32 µM)
Aspergillus fumigatus
  MIC: 16 µg/mL (≈ 37.2 µM)
[1]
  MIC: 16 µg/mL (≈ 37.2 µM)
Rhizopus arrhizus
  MIC: 16 µg/mL (≈ 37.2 µM)
Mucor hiemalis
  MIC: 16 µg/mL (≈ 37.2 µM)
